From patent US11168052B2, “Carbamate derivative compounds, processes for preparing them and their uses” (BIO-PHARM SOLUTIONS CO., LTD., priority 2016, dated 2021)

Legend:
[1] = tested on: MES (electroshock) seizure in rats; experiment: Anti-epilepsy activity, MES test in rats; assay type: in vivo, SD rats; conditions: Rattus norvegicus, po
Method in brief: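 Male ICR mice (19–25 g) and male SD rats (100–130 g) dosed orally with compound in 20% Tween 80/saline, then shocked via corneal electrodes at peak time (mice 50 mA, rats 150 mA; 60 Hz, 0.2 sec). Three doses used; ED50 for seizure protection by Litchfield–Wilcoxon log-probit.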

[2] = tested on: Picrotoxin (PIC)-induced clonic seizure in mice; experiment: Chemical induced seizure model (PIC); assay type: in vivo, ICR mice
Experimental: Picrotoxin (PIC) were used to induce the behavioral seizures in the experiments. Male ICR mice (purchased from Orient Bio Inc. Korea) of body weight 19-26 g (mice) were used for these studies. The test materials were administered intraperitoneal (ip) route in a volume of 10 ul/g (mice) weight in rats or mice, respectively. Pharmacological effects of the test materials were evaluated to compared test groups (n=6) with a control group (n=6). Control group was administrated vehicle, only. The peak time was determined by administration of test material's random dose for 0.5, 1, 2, 4 hour. The time that the most protect was defined as a peak time and ED50 was determined by other dose administration at the peak time. Chemical (PIC) was dissolved in 0.9% saline and administered subcutaneously (s.c.) at its CD97 (convulsive dose 97%), the dose of Chemical (PIC) that produced clonic seizures in 97% into a loose fold of skin in the midline of the neck in a volume of 10 ul/g (mice) body weight. The animals were then transferred to observation cages and observed continuously for 45 min. Clonic seizure was elicited in approximately 97% of control group. Protection was defined as a complete absence of clonic seizure over the 45-min observation period. The effective dose of compound necessary to protect against generalized convulsive seizures to 50% of controls (i.e., ED50) was determined by log probit analysis using SPSS software program (SPSS Inc.). (Reference; White H. S., J. H. Woodhead, K. S. Wilcox, J. P. Stables, H. J. Kupferberg, and H. H. Wolf. General Principles; Discovery and Preclinical Development of Antiepileptic Drugs. In: R. H. Levy, R. H. Mattson, B. S. Meldrum, and E. Perucca, eds. Antiepileptic Drugs, 5th Ed. Lippincott Williams & Wilkins, Philadelphia 2002: pp. 36-48.) The obtained results are shown in following Table 10.

[3] = tested on: ICR mice, tail-flick analgesia meter; experiment: Tail-flick test; assay type: in vivo; conditions: orally, withdrawal latency
Experimental: To examine the pain relief effect of the carbamate compounds, a tail-flick test was conducted, referring to Current Protocols in Neuroscience; Behavioral Neuroscience Unit 8.9.
ICR mice (male, 25-30g; Orient Bio, Korea) were habituated before test (in test room) for 1 hour. Animals were fasted 2 hr before administration of compounds. Each of Compound was orally administered at the 1-3 dose, 10 ul/g, by bodyweight (n=4-6/group). All compounds were dissolved in a vehicle of 30% (v/v) PEG 400 or 20% (v/v) Tween 80. The control group was treated the vehicle without compounds.
After the administration of compounds, the mice tail were put on a tail-flick analgesia meter. To avoid tissue damage, maximal exposure time to pain stimuli was restricted to 15 s. The withdrawal latency was measured to the time to the point when each mouse responded. The relative values compared to the control (% control) were calculated.
The relative values compared to the sham were calculated and shown in Table 7, which show effect of the compound of examples on tail-flick test in Mice.

[4] = tested on: PTZ (Pentylenetetrazol)-induced clonic seizure in rats; experiment: Anti-epilepsy activity, scPTZ test in rats; assay type: in vivo, SD rats; conditions: Rattus norvegicus, ip
Text: In this experiment, each test compound sample was formulated as described in Biological Experimental Example 1, and administered intraperitoneally to the test animals (mice; ICR or Rat; SD); Experimental animals, male ICR mice and male SD rats, were purchased from OrientBio or Nara biotech, Korea, and housed 4-5 mice per a cage for 4-5 days. The range of mice body weight was used between 19 and 26 grams and range of rats body weight was used between 100 and 130 grams. After Peak time (0.5, 1, 2 and 4 hr) from the administration, PTZ (Pentylenetetrazol) was administered subcutaneously in the concentration capable of inducing 97% intermittent convulsions (mice: 100-110 mg/kg?bw, 10 μl/g, or rats: 90-110 mg/kg?bw, 2 μl/g). If clonic seizure was not observed for at least 30 minutes in the PTZ administered animal, it can be considered that the test compound has anti-epilepsy activity. The median effective dose (ED50) is determined using 6 animals per a concentration (total three different concentrations), and calculated by Litchfield and Wicoxon log-probit method which is a dose-response relationship.

Row | SMILES | ED50 [1] [mg/kg] | ED50 ([2]; Mus musculus, ip, read-out: PIC(ip) ED50) [mg/kg] | Tail-flick test Dose [3] [mg/kg] | ED50 [4] [mg/kg] | PIC(ip) efficacy % ([2]; mice, dose 120 mg/kg)
1 | NC(=O)O[C@@H]1CCc2cccc(Cl)c2[C@@H]1O [Example 1, (1S, 2R)-8-chloro-1-hydroxy-1,2,3,4-tetrahydronaphthalen-2-yl carbamate] | 5.9 | 23.7 | >150 | 36.3 | 
2 | NC(=O)O[C@@H]1c2c(Cl)cccc2CC[C@@H]1O [Example 19, (1R, 2S)-8-chloro-2-hydroxy-1,2,3,4-tetrahydronaphthalen-1-yl carbamate] | 4.6 |  | >200 | 50 | 120 (16.6%)
